Results as given in ChEMBL document CHEMBL4052642, “4-Methyl-6,7-dihydro-4H-triazolo[4,5-c]pyridine-Based P2X7 Receptor Antagonists: Optimization of Pharmacokinetic Properties Leading to the Identification of a Clinical Candidate” (J Med Chem, 2017).
Converted amounts (≈) assume the structure as drawn.

Key:
[1] = Protein binding in human plasma at 1 uM after 6 hrs by equilibrium dialysis method; assay type: ADME, cell-free; conditions: read-out: PPB (converted)
Cytochrome P450 2D6 = Cytochrome P450 2D6 (Homo sapiens, UniProt P10635); experiment: Inhibition of CYP2D6 in human liver microsomes using dextromethorphan as substrate after 15 mins by LC-MS/MS analysis; assay type: ADME
Cytochrome P450 2D6, sequence (P10635 whole entry): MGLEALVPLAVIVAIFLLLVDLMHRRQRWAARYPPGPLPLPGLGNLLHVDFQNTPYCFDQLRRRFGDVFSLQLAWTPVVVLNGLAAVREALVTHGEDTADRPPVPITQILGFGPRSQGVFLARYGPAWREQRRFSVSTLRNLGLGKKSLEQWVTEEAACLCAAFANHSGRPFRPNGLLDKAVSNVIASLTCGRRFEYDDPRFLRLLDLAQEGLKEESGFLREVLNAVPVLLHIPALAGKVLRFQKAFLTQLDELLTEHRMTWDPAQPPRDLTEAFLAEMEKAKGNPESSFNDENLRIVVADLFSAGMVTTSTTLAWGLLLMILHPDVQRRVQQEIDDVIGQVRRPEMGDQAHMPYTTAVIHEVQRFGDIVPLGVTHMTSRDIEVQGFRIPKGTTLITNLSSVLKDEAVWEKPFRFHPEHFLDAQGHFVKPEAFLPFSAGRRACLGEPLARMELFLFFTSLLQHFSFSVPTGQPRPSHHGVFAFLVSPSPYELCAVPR

[2] = target: Voltage-gated inwardly rectifying potassium channel KCNH2 (Homo sapiens, UniProt Q12809); experiment: Inhibition of [3H]-dofetilide binding to human ERG expressed in HEK293 cells; assay type: cell-based
Voltage-gated inwardly rectifying potassium channel KCNH2, sequence (Q12809 whole entry): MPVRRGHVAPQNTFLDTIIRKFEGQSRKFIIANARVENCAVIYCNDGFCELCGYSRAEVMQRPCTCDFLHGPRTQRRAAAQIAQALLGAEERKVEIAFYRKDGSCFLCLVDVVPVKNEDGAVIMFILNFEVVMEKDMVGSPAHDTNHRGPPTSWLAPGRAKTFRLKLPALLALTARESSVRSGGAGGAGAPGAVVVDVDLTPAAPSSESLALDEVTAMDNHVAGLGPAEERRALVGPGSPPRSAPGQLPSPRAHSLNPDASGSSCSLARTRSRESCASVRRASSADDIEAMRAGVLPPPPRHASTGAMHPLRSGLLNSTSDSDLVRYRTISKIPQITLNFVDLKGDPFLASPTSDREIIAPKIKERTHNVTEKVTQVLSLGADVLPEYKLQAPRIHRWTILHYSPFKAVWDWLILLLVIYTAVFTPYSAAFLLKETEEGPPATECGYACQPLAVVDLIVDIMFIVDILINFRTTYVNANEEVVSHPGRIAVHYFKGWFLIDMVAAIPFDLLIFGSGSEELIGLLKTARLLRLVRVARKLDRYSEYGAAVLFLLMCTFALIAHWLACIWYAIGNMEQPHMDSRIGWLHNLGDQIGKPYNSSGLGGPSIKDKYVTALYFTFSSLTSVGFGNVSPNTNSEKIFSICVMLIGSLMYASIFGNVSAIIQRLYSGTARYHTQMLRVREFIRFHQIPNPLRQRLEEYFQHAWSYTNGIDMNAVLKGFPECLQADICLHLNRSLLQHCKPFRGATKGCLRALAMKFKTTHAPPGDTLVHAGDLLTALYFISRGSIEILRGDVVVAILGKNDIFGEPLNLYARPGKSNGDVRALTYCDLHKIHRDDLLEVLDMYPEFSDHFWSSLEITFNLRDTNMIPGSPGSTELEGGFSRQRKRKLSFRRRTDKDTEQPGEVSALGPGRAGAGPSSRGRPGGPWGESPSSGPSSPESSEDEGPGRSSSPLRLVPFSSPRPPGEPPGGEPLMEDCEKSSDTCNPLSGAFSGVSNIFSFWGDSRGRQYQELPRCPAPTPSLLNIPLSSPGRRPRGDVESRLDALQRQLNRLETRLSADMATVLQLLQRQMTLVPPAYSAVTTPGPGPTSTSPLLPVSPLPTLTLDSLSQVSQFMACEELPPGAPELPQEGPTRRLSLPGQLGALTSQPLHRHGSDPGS

Cytochrome P450 2C9 [3] = target: T1, Cytochrome P450 2C9 (Homo sapiens, UniProt P11712); experiment: Inhibition of CYP2C9 in human liver microsomes using diclofenac as substrate after 15 mins by LC-MS/MS analysis; assay type: ADME
T1 sequence (P11712 whole entry): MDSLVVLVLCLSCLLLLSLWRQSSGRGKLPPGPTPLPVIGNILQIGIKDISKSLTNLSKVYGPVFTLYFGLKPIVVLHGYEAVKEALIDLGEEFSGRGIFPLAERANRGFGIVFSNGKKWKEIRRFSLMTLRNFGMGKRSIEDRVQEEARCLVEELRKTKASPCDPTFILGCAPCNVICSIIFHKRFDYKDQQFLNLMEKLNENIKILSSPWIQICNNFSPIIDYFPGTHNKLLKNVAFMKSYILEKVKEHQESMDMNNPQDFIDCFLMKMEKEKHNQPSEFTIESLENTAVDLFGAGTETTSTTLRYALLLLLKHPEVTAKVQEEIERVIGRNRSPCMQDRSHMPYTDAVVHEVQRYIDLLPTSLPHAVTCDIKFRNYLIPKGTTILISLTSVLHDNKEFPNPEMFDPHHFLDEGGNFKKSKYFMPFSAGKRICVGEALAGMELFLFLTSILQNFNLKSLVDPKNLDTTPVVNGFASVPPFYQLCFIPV

[4] = Protein binding in rat plasma at 1 uM after 6 hrs by equilibrium dialysis method; assay type: ADME, cell-free; conditions: read-out: PPB (converted)
[5] = Solubility of compound in phosphate buffer at pH 7 after 3 days; assay type: physicochemical
Cytochrome P450 2C19 [6] = target: T2, Cytochrome P450 2C19 (Homo sapiens, UniProt P33261); experiment: Inhibition of CYP2C19 in human liver microsomes using S-mephenytoin as substrate after 15 mins by LC-MS/MS analysis; assay type: ADME
T2 sequence (P33261 whole entry): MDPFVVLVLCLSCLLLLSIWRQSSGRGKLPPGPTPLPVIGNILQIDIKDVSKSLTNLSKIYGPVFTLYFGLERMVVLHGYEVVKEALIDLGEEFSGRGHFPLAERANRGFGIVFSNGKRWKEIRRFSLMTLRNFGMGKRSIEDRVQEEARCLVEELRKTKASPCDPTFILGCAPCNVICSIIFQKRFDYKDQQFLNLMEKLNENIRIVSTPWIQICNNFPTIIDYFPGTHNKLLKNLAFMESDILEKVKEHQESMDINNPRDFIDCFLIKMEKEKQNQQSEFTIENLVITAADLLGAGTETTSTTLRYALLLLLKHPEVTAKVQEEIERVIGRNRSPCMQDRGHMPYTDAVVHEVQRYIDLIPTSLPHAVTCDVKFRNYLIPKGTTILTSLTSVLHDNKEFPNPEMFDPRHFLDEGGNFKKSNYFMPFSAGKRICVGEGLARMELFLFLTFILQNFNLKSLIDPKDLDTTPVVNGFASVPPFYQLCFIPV

[7] = Protein binding in mouse plasma at 1 uM after 6 hrs by equilibrium dialysis method; assay type: ADME, cell-free; conditions: read-out: PPB (converted)
Cytochrome P450 1A2 = target: T3, Cytochrome P450 1A2 (Homo sapiens, UniProt P05177); experiment: Inhibition of CYP1A2 in human liver microsomes using phenacetin as substrate after 15 mins by LC-MS/MS analysis; assay type: ADME
T3 sequence (P05177 whole entry): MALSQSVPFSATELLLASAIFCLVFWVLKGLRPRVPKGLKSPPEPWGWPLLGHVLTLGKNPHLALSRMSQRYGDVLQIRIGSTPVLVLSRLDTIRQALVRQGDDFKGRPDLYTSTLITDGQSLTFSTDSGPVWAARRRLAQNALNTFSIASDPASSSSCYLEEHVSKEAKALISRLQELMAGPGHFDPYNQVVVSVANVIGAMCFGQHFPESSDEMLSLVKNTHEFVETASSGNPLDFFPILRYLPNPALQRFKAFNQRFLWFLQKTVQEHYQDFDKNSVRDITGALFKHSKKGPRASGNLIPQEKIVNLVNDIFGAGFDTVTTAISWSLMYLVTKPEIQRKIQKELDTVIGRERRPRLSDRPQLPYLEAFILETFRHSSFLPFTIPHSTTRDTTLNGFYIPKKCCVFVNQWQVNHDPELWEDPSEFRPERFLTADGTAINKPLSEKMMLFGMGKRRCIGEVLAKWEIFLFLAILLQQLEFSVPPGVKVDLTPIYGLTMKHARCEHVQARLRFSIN

Cytochrome P450 2C8 = target: T4, Cytochrome P450 2C8 (Homo sapiens, UniProt P10632); experiment: Inhibition of CYP2C8 in human liver microsomes using paclitaxel as substrate after 15 mins by LC-MS/MS analysis; assay type: ADME
T4 sequence (P10632 whole entry): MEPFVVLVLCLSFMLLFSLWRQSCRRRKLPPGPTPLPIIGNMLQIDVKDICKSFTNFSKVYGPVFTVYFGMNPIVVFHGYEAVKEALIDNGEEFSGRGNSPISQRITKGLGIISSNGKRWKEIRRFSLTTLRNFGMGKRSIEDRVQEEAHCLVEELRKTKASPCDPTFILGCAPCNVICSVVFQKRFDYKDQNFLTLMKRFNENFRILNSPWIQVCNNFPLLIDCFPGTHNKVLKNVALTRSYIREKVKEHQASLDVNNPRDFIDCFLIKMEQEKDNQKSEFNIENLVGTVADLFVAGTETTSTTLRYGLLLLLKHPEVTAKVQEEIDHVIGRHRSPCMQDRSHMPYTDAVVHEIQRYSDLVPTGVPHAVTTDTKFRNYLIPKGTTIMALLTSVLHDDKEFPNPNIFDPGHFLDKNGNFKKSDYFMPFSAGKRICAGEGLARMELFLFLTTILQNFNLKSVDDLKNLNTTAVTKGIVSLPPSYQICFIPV

[8] = Solubility of compound in phosphate buffer at pH 2 after 3 days; assay type: physicochemical
Cytochrome P450 3A4 = Cytochrome P450 3A4 (Homo sapiens, UniProt P08684); experiment: Inhibition of CYP3A4 in human liver microsomes using midazolam as substrate after 15 mins by LC-MS/MS analysis; assay type: ADME
Cytochrome P450 3A4, sequence (P08684 whole entry): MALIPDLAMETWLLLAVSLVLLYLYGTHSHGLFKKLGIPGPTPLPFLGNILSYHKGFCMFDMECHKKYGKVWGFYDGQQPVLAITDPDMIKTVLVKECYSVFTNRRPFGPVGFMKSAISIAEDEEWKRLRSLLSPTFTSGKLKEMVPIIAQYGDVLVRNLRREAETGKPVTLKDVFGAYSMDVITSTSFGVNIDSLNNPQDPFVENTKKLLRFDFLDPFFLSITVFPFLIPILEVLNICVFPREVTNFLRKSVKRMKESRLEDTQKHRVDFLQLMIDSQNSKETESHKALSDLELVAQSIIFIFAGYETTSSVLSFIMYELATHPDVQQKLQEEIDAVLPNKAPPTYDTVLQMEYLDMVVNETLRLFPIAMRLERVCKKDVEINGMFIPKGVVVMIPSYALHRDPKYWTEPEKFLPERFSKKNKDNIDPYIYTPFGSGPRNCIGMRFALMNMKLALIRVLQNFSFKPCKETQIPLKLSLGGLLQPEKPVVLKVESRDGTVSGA

[9] = Oral bioavailability in beagle dog at 2.5 mg/kg by LC-MS/MS analysis; assay type: ADME, organism-based, Canis lupus familiaris; conditions: beagle, in vivo
[10] = Volume of distribution at steady state in Balb/c mouse at 1 mg/kg, iv or 5 mg/kg, po by LC-MS/MS analysis; assay type: ADME, organism-based; conditions: in vivo, read-out: Vdss
[11] = Clearance in cynomolgus monkey at 1 mg/kg, iv or 5 mg/kg, po by LC-MS/MS analysis; assay type: ADME, organism-based, Macaca fascicularis; conditions: in vivo
Rattus norvegicus [12] = experiment: Toxicity in rat assessed as autoinduction at 50 to 150 mg/kg administered via oral gavage on day 1 and day 4; assay type: organism-based; conditions: in vivo
Cytochrome P450 2C19 [13] = target: T2, Cytochrome P450 2C19; experiment: Drug metabolism assessed as recombinant human CYP2C19-mediated metabolite formation; assay type: ADME; conditions: recombinant enzyme
[14] = Oral bioavailability in Sprague-Dawley rat at 5 mg/kg by LC-MS/MS analysis; assay type: ADME, organism-based; conditions: in vivo
[15] = Volume of distribution at steady state in Sprague-Dawley rat at 1 mg/kg, iv or 5 mg/kg, po by LC-MS/MS analysis; assay type: ADME, organism-based; conditions: in vivo, read-out: Vdss
[16] = Clearance in beagle dog at 0.5 mg/kg, iv or 2.5 mg/kg, po by LC-MS/MS analysis; assay type: ADME, organism-based, Canis lupus familiaris; conditions: in vivo
Plasma = experiment: Plasma concentration in rat at 250 mg/kg administered single dose via oral gavage; assay type: ADME, organism-based; conditions: in vivo
[17] = Half life in beagle dog at 0.5 mg/kg, iv by LC-MS/MS analysis; assay type: ADME, organism-based, Canis lupus familiaris; conditions: in vivo
[18] = Half life in cynomolgus monkey at 1 mg/kg, iv by LC-MS/MS analysis; assay type: ADME, organism-based, Macaca fascicularis; conditions: in vivo
[19] = Volume of distribution at steady state in cynomolgus monkey at 1 mg/kg, iv or 5 mg/kg, po by LC-MS/MS analysis; assay type: ADME, organism-based, Macaca fascicularis; conditions: in vivo, read-out: Vdss
Rattus norvegicus [20] = experiment: Ex vivo receptor occupancy at P2X7 in po dosed Sprague-Dawley rat brain after 60 mins by autoradiography; assay type: functional
[21] = Half life in Balb/c mouse at 1 mg/kg, iv by LC-MS/MS analysis; assay type: ADME, organism-based; conditions: in vivo
[22] = Oral bioavailability in cynomolgus monkey at 5 mg/kg by LC-MS/MS analysis; assay type: ADME, organism-based, Macaca fascicularis; conditions: in vivo
Rattus norvegicus [23] = experiment: Toxicity in rat assessed as hepatic lipidosis at 50 to 350 mg/kg administered via oral gavage on day 1 and day 4 measured on day 5 by hematoxylin/eosin staining-based microscopic method; assay type: organism-based; conditions: in vivo
[24] = Oral bioavailability in Balb/c mouse at 5 mg/kg by LC-MS/MS analysis; assay type: ADME, organism-based; conditions: in vivo
Rattus norvegicus [25] = experiment: Ex vivo receptor occupancy at P2X7 in po dosed Sprague-Dawley rat brain assessed as plasma concentration required to achieve EC50 after 60 mins by autoradiography; assay type: functional, organism-based
[26] = Volume of distribution at steady state in beagle dog at 0.5 mg/kg, iv or 2.5 mg/kg, po by LC-MS/MS analysis; assay type: ADME, organism-based, Canis lupus familiaris; conditions: in vivo, read-out: Vdss
Rattus norvegicus [27] = experiment: Drug metabolism in Sprague-Dawley rat assessed as formation of (R)-(2-chloro-3-(trifluoromethyl)phenyl)(4-methyl-1,4,6,7-tetrahydro-5H-[1,2,3]triazolo[4,5-c]pyridin-5-yl)methanone at 1 mg/kg, iv or 5 mg/kg, po by LC-MS/MS analysis; assay type: ADME, organism-based; conditions: in vivo
[28] = Clearance in Sprague-Dawley rat at 1 mg/kg, iv or 5 mg/kg, po by LC-MS/MS analysis; assay type: ADME, organism-based; conditions: in vivo
Cytochrome P450 2C9 [29] = target: T1, Cytochrome P450 2C9; experiment: Drug metabolism assessed as recombinant human CYP2C9-mediated metabolite formation; assay type: ADME; conditions: recombinant enzyme
[30] = Drug excretion in Sprague-Dawley rat at 1 mg/kg, iv or 5 mg/kg, po by LC-MS/MS analysis; assay type: ADME, organism-based; conditions: in vivo, read-out: Drug excretion
Rattus norvegicus [31] = experiment: Toxicity in rat assessed as ataxia at 500 to 1000 mg/kg administered single dose via oral gavage; assay type: organism-based; conditions: in vivo
Rattus norvegicus [32] = experiment: Toxicity in rat assessed as increase in liver weight at 50 to 150 mg/kg administered via oral gavage on day 1 and day 4; assay type: organism-based; conditions: in vivo
[33] = Ratio of drug level in po dosed Sprague-Dawley rat brain to plasma; assay type: ADME, organism-based; conditions: read-out: BPR
[34] = Half life in Sprague-Dawley rat at 1 mg/kg, iv by LC-MS/MS analysis; assay type: ADME, organism-based; conditions: in vivo
Rattus norvegicus [35] = experiment: Toxicity in rat assessed as decrease in activity at 250 to 1000 mg/kg administered single dose via oral gavage; assay type: organism-based; conditions: in vivo
[36] = Clearance in Balb/c mouse at 1 mg/kg, iv or 5 mg/kg, po by LC-MS/MS analysis; assay type: ADME, organism-based; conditions: in vivo

## C[C@@H]1c2nnn(-c3cc(F)ccn3)c2CCN1C(=O)c1cccc(C(F)(F)F)c1Cl
[1]
  fraction unbound at 6 h, 1 µM: 0.024
Cytochrome P450 2D6
  IC50: > 10 µM
[2]
  IC50: > 10 µM
Cytochrome P450 2C9 [3]
  IC50: 2.8 µM
[4]
  fraction unbound at 6 h, 1 µM: 0.052
[5]
  solubility at 72 h: 2.1 µM (≈ 0.924 µg/mL)
Cytochrome P450 2C19 [6]
  IC50: 2.1 µM
[7]
  fraction unbound at 6 h, 1 µM: 0.042
Cytochrome P450 1A2
  IC50: > 10 µM
Cytochrome P450 2C8
  IC50: > 10 µM
[8]
  solubility at 72 h: 4.8 µM (≈ 2.11 µg/mL)
Cytochrome P450 3A4
  IC50: > 10 µM

## C[C@@H]1c2nnn(-c3ncccn3)c2CCN1C(=O)c1cccc(C(F)(F)F)c1Cl
[9]
  bioavailability: 70%
[10]
  Vd: 1.1 L/kg
[11]
  clearance: 19 mL/min/kg
Rattus norvegicus [12]
  Activity: Toxic
Cytochrome P450 2C19 [13]
  Drug metabolism: Metabolite_Detected
[14]
  bioavailability: 92%
[1]
  fraction unbound at 6 h, 1 µM: 0.084
[15]
  Vd: 1.5 L/kg
Cytochrome P450 2D6
  IC50: > 10 µM
[2]
  IC50: > 10 µM
[16]
  clearance: 1.4 mL/min/kg
Plasma
  concentration: 175 µM
Cytochrome P450 2C9 [3]
  IC50: > 10 µM
[4]
  fraction unbound at 6 h, 1 µM: 0.076
[17]
  half-life: 660 min
[5]
  solubility at 72 h: 180 µM (≈ 76.1 µg/mL)
[18]
  half-life: 48 min
[19]
  Vd: 0.9 L/kg
Cytochrome P450 2C19 [6]
  IC50: > 10 µM
Rattus norvegicus [20]
  Occ: Dose-dependent effect
Rattus norvegicus [20]; 1 h
  ED50: 0.9 mg/kg
[7]
  fraction unbound at 6 h, 1 µM: 0.074
[21]
  half-life: 24 min
[22]
  bioavailability: 5%
Cytochrome P450 1A2
  IC50: > 10 µM
Rattus norvegicus [23]
  Activity: Toxic
[24]
  bioavailability: 61%
Rattus norvegicus [25]
  Cp: 27 ng/mL
[26]
  Vd: 1.3 L/kg
Cytochrome P450 2C8
  IC50: > 10 µM
Rattus norvegicus [27]
  Drug metabolism: Metabolite_Detected
[28]
  clearance: 66 mL/min/kg
Cytochrome P450 2C9 [29]
  Drug metabolism: Metabolite_Detected
[30]
  dose excreted: 0.4%
Rattus norvegicus [31]
  Activity: Toxic
Rattus norvegicus [32]
  Activity: Toxic
[33]
  Kp: 0.8
[8]
  solubility at 72 h: > 400 µM
Cytochrome P450 3A4
  IC50: > 10 µM
[34]
  half-life: 30 min
Rattus norvegicus [35]
  Activity: Toxic
[36]
  clearance: 32 mL/min/kg
